Here are results for four compounds from US8778959B2, “AZA-bridged ring-fused indoles and indolines” (AbbVie Inc., priority 2009, dated 2014).

The structures appear in SMILES notation.

Data set [1] deals with primary postnatal (P0) cortical cells. Kind of data set: Neurite Outgrowth Assay (Aβ1-42-treated cortical cells). The format is cell-based, rat. The settings on record: n = 1; for % Attenuation Effect of 5 μM Aβ 1-42: 5 μM Aβ1-42; for Emax: Rattus norvegicus, maximum response relative to 300 nM dimebolin, at the concentration given, read-out: Maximum Effect (of % 300 nM Dimebolin) at Concentration; for Concentration (nM) of Maximum Effect: test compound concentration at which the maximum response was noted. Here is the method: In addition to PC12 cells, other cellular model systems may also be used. Rat cortical cells can be cultured and prepared for high content microscopy analysis as previously described (Hu, M.; Schurdak, M. E.; et al. High content screen microscopy analysis of Aβ1-42-induced neurite outgrowth reduction in rat primary cortical neurons: Neuroprotective effects of α7 neuronal nicotinic acetylcholine receptor ligands. Brain Res. 2007, 1151, 227-235). Briefly, cortical cell cultures are plated at density of 5×10^5 cells/mL onto poly-D-lysine coated 96-well plates and maintained in a cell incubator at 37° C. with 5% CO2. Experiments are performed using 6-7 day-old cortical cell cultures by treating with test compounds. In some experiments, the effect of test compounds on reversing Aβ toxicity can also be measured (Hu, M.; Schurdak, M. E.; et al. High content screen microscopy analysis of Aβ1-42-induced neurite outgrowth reduction in rat primary cortical neurons: Neuroprotective effects of α7 neuronal nicotinic acetylcholine receptor ligands. Brain Res. 2007, 1151, 227-235). For assessment of neuroprotective effects, cells are first pretreated with test compounds for about 5 hours. Medium is then replaced with the medium containing freshly prepared about 5 μM Aβ1-42 peptide in the absence or presence of the test compounds for 3 days. The untreated group contains the same percentage of vehicle (DMSO) as in the treatment groups. Cells are fixed with approximately 4% paraformaldehyde containing 0.5% Hoechst 33342 for about 15 minutes, followed by three washes using PBS (pH 7.4) and blocked with 10% donkey serum in PBS for 1 hour at room temperature. The cells are then incubated overnight at about 4° C. with mouse anti-tubulin monoclonal antibody (1:100) for staining neurons and rabbit anti-GFAP (1:1000) for staining glia. In the next day, cells are incubated with FITC-labeled anti-mouse and TRITC-labeled anti-rabbit antibodies (1:1000) for about 1 hour at room temperature. After fixing and staining the cells, nuclei (360/400 nm excitation and 465/300 nm emission filters), neuron (475/350 nm excitation and 535/400 nm emission filters) and glial cell (535 nm excitation and 610 nm emission filters) images are collected using the ImageExpress Micro automatic fluorescent microscopy system (Molecular Devices, Sunnyvale, Calif.) employing a Nikon 10× Plan Fluor objective and Cool Snap HQ CCD camera. The Neurite Outgrowth module in the MetaMorph Imaging software can be used to automatically count total cell number, number of neuron cells, and the extent of neurite outgrowth.
The neurite outgrowth observed for untreated cells is set to 100% response. Treatment of cells with compounds prior to and concomitantly with Aβ1-42 gave a neuroprotective effect with neurite outgrowth maintained or enhanced relative to untreated cells.

The subject of data set [2] is SK-N-SH human neuroblastoma cells. Kind of data set: Serum Deprivation/JC-1 Mitochondrial Membrane Potential (MMP) Assay. The format is cell-based. The settings on record: Homo sapiens, SK-N-SH, 18 h; for Emax: percent maximal intensity in JC-1 ratio normalized to peak value for 10 μM dimebolin, read-out: JC-1 max %; for EC50: serum deprivation ~18 hours, JC-1 ratio normalized to peak value for 10 μM dimebolin, single curve fit to mean of n=2-3. How it is done:
SK-N-SH human neuroblastoma cells obtained from American Type Culture Collection (Rockville, Md.) were maintained in the log phase of growth in Minimal Essential Media (MEM), 10% heat inactivated fetal calf serum and 100 units/mL antibiotic-antimycotic (AA). Cells were cultured and maintained in a humidified incubator at 37° C. under 5% CO2 and 95% air. Cells were trypsinized (0.25%) and subcultured every 3 days and used from 15-18 passages. All cell culture supplies were obtained from Invitrogen (Carlsbad, Calif.).
SK-N-SH cells were plated 2-3 days in advance at a concentration of 50,000 cells/well onto collagen coated black-walled 96 well plates (Becton-Dickinson, Bedford, Mass.) in a total volume of 200 μL. On day of experimental treatment, the media containing serum was aspirated from each well and rinsed once with MEM/1% AA without serum. The cells then were incubated overnight in 100 μL of MEM/1% AA (no serum) with and without dimebolin or novel chemical entities overnight for ˜18 hours. The following day, JC-1 dye (5,5′,6,6′-tetrachloro-1,1′,3,3′-tetraethylbenzimidazolcarbocyanide) was diluted 1:10 into MEM media according to the JC-1 Mitochondrial Membrane Potential Assay Kit: (Cayman Chemical Company, Ann Arbor, Mich.) and then 10 μL of the JC-1 dye solution was added to each well. The plates were centrifuged for 5 minutes at 400×g at room temperature followed by 35 minute incubation at 37° C. The plates were washed twice with 200 μL of provided Assay Buffer followed an addition of 100 μL of Assay Buffer to each well. The plates were read with an excitation and emission of 560 nm and 595 nM for red fluorescence and with an excitation and emission of […] and 535 nM for green fluorescence to determine the final JC-1 value taking the red to green fluorescence ratio. This assay is based on change in mitochondrial membrane potential (MMP) using this lipophilic cationic dye, JC-1, by monitoring the changes in the ratio of red to green fluorescence as the MMP depolarizes. This change in MMP reflects the health of the cell with healthy, viable cells have a high JC-1 ratio and high MMP whereas apoptotic, unhealthy cells have a low JC-1 ratio or low MMP.
For the ability of compounds to reverse the stress due to serum deprivation and increase the JC-1 ratio, the percent maximal intensity in JC-1 ratio was normalized to that induced by the peak value for 10 μM dimebolin and plotted against the compound concentration to calculate EC50 values and to control for plate-to-plate variability. Concentration-response data were analyzed using GraphPad Prism (San Diego, Calif.); the EC50 values were derived from a single curve fit to the mean data of n=2-3, in duplicates.
All compounds were dissolved in dimethyl sulfoxide at 10 mM stock solutions and tested at a concentration that the dimethyl sulfoxide levels never exceeded 1%.

Data set [3] has as its system mouse model of multiple sclerosis. The settings on record: in vivo administration; cited from earlier work.
Data set [4] concerns primary rat cortical neurons. The settings on record: comparable to that evoked by BDNF; cited from earlier work.
Data set [5] relates to patients with mild-to-moderate Alzheimer's disease. The settings on record: cited from earlier work.

One may read the EC50 as the concentration giving half of the maximal effect. Consider `c1ccc(COc2cccc3c4c([nH]c23)C[C@H]2CCC[C@@H]4N2)cc1` (stereo in doubt) [Example 9, (7R*,11S*)-4-(benzyloxy)-6,7,8,9,10,11-hexahydro-5H-7,11-epiminocycloocta[b]indole], for which, in data set [1], the “% Attenuation Effect of 5 μM Aβ 1-42” value was 45 (n = 1) %, the Emax came to 115% and the “Concentration (nM) of Maximum Effect” value came out at 0.03 nM. In data set [2], the Emax was 130% and the EC50 amounted to 6.03 µM.
For the compound `O=C1C=C(c2ccccc2)C(=O)N1c1cccc(Cl)c1` [1-(3-chlorophenyl)-3-phenyl-pyrrole-2,5-dione], the “Development of the disease” value in data set [3] is listed as “significantly prevented the development of the disease”.
Regarding `Cc1ccc(/C=C/c2cccc3c4c([nH]c23)CC2CCC4N2C)cn1` (centres unmarked) [Example 1, 11-methyl-4-[(E)-2-(6-methylpyridin-3-yl)vinyl]-5,6,7,8,9,10-hexahydro-7,10-epiminocyclohepta[b]indole], in data set [1], the “% Attenuation Effect of 5 μM Aβ 1-42” value is 27 (n = 1) %, the Emax amounted to 103% and the “Concentration (nM) of Maximum Effect” value was 0.3 nM. In data set [2], the Emax is 214% and the EC50 came to 3.19 µM.
For the compound `Cc1ccc2c(c1)c1c(n2CCc2ccc(C)nc2)CCN(C)C1` [dimebolin, 2,3,4,5-tetrahydro-2,8-dimethyl-5-[2-(6-methyl-3-pyridinyl)ethyl]-1H-pyrido[4,3-b]indole], the Neurite outgrowth result in data set [4] is “increase neurite outgrowth”. For the same compound, the “Clinical course of disease (ADAS-Cog, improvement over baseline)” value in data set [5] (20 mg three times a day (60 mg/day)) is recorded as “significant improvement”. Moreover, the “Most frequent adverse event” value in data set [5] (reported clinical studies) is recorded as “dry mouth”.
